31 molecules from US10065971B2 (priority 2014, dated 2018) can be followed below.

Structures can show the parent of a compound that is named as a salt.

human σ1 receptor, sequence (Q99720 whole entry): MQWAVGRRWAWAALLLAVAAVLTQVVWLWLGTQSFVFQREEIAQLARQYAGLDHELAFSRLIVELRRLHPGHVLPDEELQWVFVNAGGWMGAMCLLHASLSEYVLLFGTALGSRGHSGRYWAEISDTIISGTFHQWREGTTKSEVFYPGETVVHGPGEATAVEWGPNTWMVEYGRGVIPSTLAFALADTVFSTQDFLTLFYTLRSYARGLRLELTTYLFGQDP

In one assay the target is human σ1 receptor (Homo sapiens, UniProt Q99720). The experiment in a line: biochemical. The settings on record: combined class from Ki at human σ1 receptor (A1) and Ki at human μ-opioid receptor (A2); radioligand binding. Further details: μ and σ1 dual binding: scale not given here. On the procedure:
Biological Activity Pharmacological Study Human σ1 Receptor Radioligand Assay
The assay was carried out with 7 μg of membrane suspension, 5 nM of [^3H](+)-pentazocine in either absence or presence of either buffer or 10 μM Haloperidol for total and non-specific binding, respectively. Binding buffer contained Tris-HCl 50 mM at pH 8. Plates were incubated at 37° C. for 120 minutes. After the incubation period, the reaction mix was then transferred to MultiScreen HTS, FC plates (Millipore), filtered and plates were washed 3 times with ice-cold 10 mM Tris-HCL (pH7.4). Filters were dried and counted at approximately 40% efficiency in a MicroBeta scintillation counter (Perkin-Elmer) using EcoScint liquid scintillation cocktail
As for `CCC(=O)N1CC(C)OC2(CCN(CCc3ccccc3F)CC2)C1.Cl` (stereo not shown) [Example 91, 1-(9-(2-fluorophenethyl)-2-methyl-1-oxa-4,9-diazaspiro[5.5]undecan-4-yl)propan-1-one hydrochloride], the “μ and σ1 dual binding” value is given as “++”.

Turning to `C[C@H]1CN(C(=O)c2ccccc2F)CC2(CCN(CCc3ncccc3F)CC2)O1` [Example 144, (S)-(2-fluorophenyl)(9-(2-(3-fluoropyridin-2-yl)ethyl)-2-methyl-1-oxa-4,9-diazaspiro[5.5]undecan-4-yl)methanone], the “μ and σ1 dual binding” value is given as “++”.

Regarding `Cl.O=C(Cc1cccnc1)N1CCOC2(CCN(CCc3ccccc3)CC2)C1` [Example 15, 1-(9-phenethyl-1-oxa-4,9-diazaspiro[5.5]undecan-4-yl)-2-(pyridin-3-yl)ethanone hydrochloride], the “μ and σ1 dual binding” value was “++”.

Take `CC1CN(C(=O)c2ccccc2)CC2(CCN(CCc3csc(N)n3)CC2)O1.Cl` (stereo not shown) [Example 103, (9-(2-(2-aminothiazol-4-yl)ethyl)-2-methyl-1-oxa-4,9-diazaspiro[5.5]undecan-4-yl)(phenyl)methanone]: the “μ and σ1 dual binding” value is “++”.

As for `Cl.O=C(c1nccs1)N1CCOC2(CCN(CCc3ccccc3)CC2)C1` [Example 13, (9-phenethyl-1-oxa-4,9-diazaspiro[5.5]undecan-4-yl)(thiazol-2-yl)methanone hydrochloride], the “μ and σ1 dual binding” value is “++”.

Consider `Cl.O=C(c1ccccc1)N1CCOC2(CCN(CCc3ccccn3)CC2)C1` [Example 63, phenyl(9-(2-(pyridin-2-yl)ethyl)-1-oxa-4,9-diazaspiro[5.5]undecan-4-yl)methanone hydrochloride], for which the “μ and σ1 dual binding” value is recorded as “++”.

For the molecule `O=C(c1cscn1)N1CCOC2(CCN(CCc3ccccc3)CC2)C1` [Example 12, (9-phenethyl-1-oxa-4,9-diazaspiro[5.5]undecan-4-yl)(thiazol-4-yl)methanone], the “μ and σ1 dual binding” value is listed as “++”.

For `Cl.O=C(CC1CC1)N1CCOC2(CCN(CCc3ccccc3)CC2)C1` [Example 20, 2-cyclopropyl-1-(9-phenethyl-1-oxa-4,9-diazaspiro[5.5]undecan-4-yl)ethanone hydrochloride], the “μ and σ1 dual binding” value was “++”.

With `CC1CN(C(=O)c2ccccc2)CC2(CCN(CCc3cccc(C(F)(F)F)n3)CC2)O1` (stereo not shown) [Example 38, (2-methyl-9-(2-(6-(trifluoromethyl)pyridin-2-yl)ethyl)-1-oxa-4,9-diazaspiro[5.5]undecan-4-yl)(phenyl)methanone dihydrochloride], the “μ and σ1 dual binding” value was “++”.

For the molecule `CC1CN(C(=O)c2ncccc2F)CC2(CCN(CCc3ccccc3)CC2)O1.Cl` (stereo not shown) [Example 32, (3-fluoropyridin-2-yl)(2-methyl-9-phenethyl-1-oxa-4,9-diazaspiro[5.5]undecan-4-yl)methanone hydrochloride], the “μ and σ1 dual binding” value is reported as “++”.

For `C[C@@H]1CN(C(=O)c2ccccn2)CC2(CCN(CCc3ccccc3)CC2)O1.Cl` [Example 124, (R)-(2-methyl-9-phenethyl-1-oxa-4,9-diazaspiro[5.5]undecan-4-yl)(pyridin-2-yl)methanone hydrochloride], the “μ and σ1 dual binding” value was “++”.

For the molecule `Cl.O=C(c1cccnc1)N1CCOC2(CCN(CCc3ccccc3)CC2)C1` [Example 5, (9-phenethyl-1-oxa-4,9-diazaspiro[5.5]undecan-4-yl)(pyridin-3-yl)methanone hydrochloride], the “μ and σ1 dual binding” value is given as “++”.

`Cl.O=C(CC1CCOCC1)N1CCOC2(CCN(CCc3ccccc3)CC2)C1` [Example 16, 1-(9-phenethyl-1-oxa-4,9-diazaspiro[5.5]undecan-4-yl)-2-(tetrahydro-2H-pyran-4-yl)ethanone hydrochloride]: the “μ and σ1 dual binding” value is recorded as “++”.

`CC1CN(C(=O)c2ccccc2)CC2(CCN(CCc3ccccn3)CC2)O1.Cl` (stereo not shown) [Example 87, (2-methyl-9-(2-(pyridin-2-yl)ethyl)-1-oxa-4,9-diazaspiro[5.5]undecan-4-yl)(phenyl)methanone hydrochloride]: the “μ and σ1 dual binding” value is recorded as “++”.

For `CC1CN(C(=O)c2ccccc2)CC2(CCN(CCc3cccc(NC(N)=O)c3)CC2)O1.Cl` (stereo not shown) [Example 109, 1-(3-(2-(4-benzoyl-2-methyl-1-oxa-4,9-diazaspiro[5.5]undecan-9-yl)ethyl)phenyl)urea hydrochloride], the “μ and σ1 dual binding” value was “++”.

Take `Cl.O=C(c1ccccc1)N1CCOC2(CCN(CCc3ccc(C(F)(F)F)nc3)CC2)C1` [Example 70, phenyl(9-(2-(6-(trifluoromethyl)pyridin-3-yl)ethyl)-1-oxa-4,9-diazaspiro[5.5]undecan-4-yl)methanone hydrochloride]: the “μ and σ1 dual binding” value was “++”.

For `Cl.O=C(c1cncc(F)c1)N1CCOC2(CCN(CCc3ccccc3)CC2)C1` [Example 26, (5-fluoropyridin-3-yl)(9-phenethyl-1-oxa-4,9-diazaspiro[5.5]undecan-4-yl)methanone hydrochloride], the “μ and σ1 dual binding” value is reported as “++”.

Turning to `CC1CN(C(=O)c2ccccc2)CC2(CCN(CCc3ccc(C(F)(F)F)cn3)CC2)O1.Cl` (stereo not shown) [Example 42, (2-methyl-9-(2-(5-(trifluoromethyl)pyridin-2-yl)ethyl)-1-oxa-4,9-diazaspiro[5.5]undecan-4-yl)(phenyl)methanone hydrochloride], the “μ and σ1 dual binding” value is “++”.

For the molecule `COc1cccnc1CCN1CCC2(CC1)CN(C(=O)c1ccccc1F)CC1(CC1)O2` [Example 130, 12-[(2-fluorophenyl)carbonyl]-8-(2-(3-methoxypyridin-2-yl)ethyl)-4-oxa-8,12-diazadispiro[2.1.5.3]tridecane], the “μ and σ1 dual binding” value is on record as “++”.

As for `C[C@H]1CN(C(=O)c2c(F)cccc2F)CC2(CCN(CCc3ncccc3F)CC2)O1` [Example 146, (S)-(2,6-difluorophenyl)(9-(2-(3-fluoropyridin-2-yl)ethyl)-2-methyl-1-oxa-4,9-diazaspiro[5.5]undecan-4-yl)methanone], the “μ and σ1 dual binding” value was “++”.

`Cl.O=C(c1ncccc1F)N1CCOC2(CCN(CCc3ccccc3)CC2)C1` [Example 25, (3-fluoropyridin-2-yl)(9-phenethyl-1-oxa-4,9-diazaspiro[5.5]undecan-4-yl)methanone hydrochloride]: the “μ and σ1 dual binding” value is “++”.

`CC1CN(C(=O)c2cncc(C(F)(F)F)c2)CC2(CCN(CCc3ccccc3)CC2)O1.Cl` (stereo not shown) [Example 36, (2-methyl-9-phenethyl-1-oxa-4,9-diazaspiro[5.5]undecan-4-yl)(5-(trifluoromethyl)pyridin-3-yl)methanone hydrochloride]: the “μ and σ1 dual binding” value is reported as “++”.

The same assay, now with this note: combined class from Ki at human σ1 receptor (A1) and Ki at human μ-opioid receptor (A2); radioligand binding; read-out: μ and σ1 dual binding.
Turning to `CC1CN(C(=O)c2ccc(Cl)cn2)CC2(CCN(CCc3csc(NC(=O)OC(C)(C)C)n3)CC2)O1` (stereo not shown) [Example 78, tert-butyl (4-(2-(4-(5-chloropicolinoyl)-2-methyl-1-oxa-4,9-diazaspiro[5.5]undecan-9-yl)ethyl)thiazol-2-yl)carbamate], the Ki was greater than 500 nM.

In the case of `Nc1cccc(CCN2CCC3(CC2)CN(C(=O)c2ccccc2)CCO3)c1` [Example 104, (9-(3-aminophenethyl)-1-oxa-4,9-diazaspiro[5.5]undecan-4-yl)(phenyl)methanone], the Ki is greater than 500 nM.

For the molecule `CC(C)OCCN1CCC2(CC1)CN(C(=O)c1ccccc1)CC(C)O2` (stereo not shown) [Example 88, (9-(2-isopropoxyethyl)-2-methyl-1-oxa-4,9-diazaspiro[5.5]undecan-4-yl)(phenyl)methanone hydrochloride], the Ki is greater than 500 nM.

Take `CC1CN(C(=O)c2cccc(F)c2)CC2(CCN(CCc3ncccc3F)CC2)O1` (stereo not shown) [Example 151, (3-fluorophenyl)(9-(2-(3-fluoropyridin-2-yl)ethyl)-2-methyl-1-oxa-4,9-diazaspiro[5.5]undecan-4-yl)methanone]: the Ki is greater than 500 nM.

`CC1CN(C(=O)c2ccc(F)cc2F)CC2(CCN(CCc3ncccc3F)CC2)O1` (stereo not shown) [Example 148, (2,4-difluorophenyl)(9-(2-(3-fluoropyridin-2-yl)ethyl)-2-methyl-1-oxa-4,9-diazaspiro[5.5]undecan-4-yl)methanone]: the Ki is greater than 500 nM.

In the case of `CC1CN(C(=O)c2ccccc2)CC2(CCN(CC(=O)N3CCCCC3)CC2)O1` (stereo not shown) [Example 90, 2-(4-benzoyl-2-methyl-1-oxa-4,9-diazaspiro[5.5]undecan-9-yl)-1-(piperidin-1-yl)ethanone hydrochloride], the Ki is greater than 500 nM.

On to `O=C(C1CCOCC1)N1CCOC2(CCN(CCc3ccccc3)CC2)C1` [Example 18, (9-phenethyl-1-oxa-4,9-diazaspiro[5.5]undecan-4-yl)(tetrahydro-2H-pyran-4-yl)methanone], for which the Ki was greater than 500 nM.

In the case of `O=C(c1ccccc1)N1CCOC2(CCN(CCc3cccnc3)CC2)C1` [Example 71, phenyl(9-(2-(pyridin-3-yl)ethyl)-1-oxa-4,9-diazaspiro[5.5]undecan-4-yl)methanone dihydrochloride], the Ki was greater than 500 nM.

As to `CC1CN(C(=O)c2ccccc2)CC2(CCN(CCc3csc(NC(=O)OC(C)(C)C)n3)CC2)O1` (stereo not shown) [Example 79, tert-butyl (4-(2-(4-benzoyl-2-methyl-1-oxa-4,9-diazaspiro[5.5]undecan-9-yl)ethyl)thiazol-2-yl)carbamate], the Ki is greater than 500 nM.
